Molecular target: Ribosomal protein S6 kinase alpha-3 (Homo sapiens) (UniProt P51812)
Sequence (P51812 whole entry): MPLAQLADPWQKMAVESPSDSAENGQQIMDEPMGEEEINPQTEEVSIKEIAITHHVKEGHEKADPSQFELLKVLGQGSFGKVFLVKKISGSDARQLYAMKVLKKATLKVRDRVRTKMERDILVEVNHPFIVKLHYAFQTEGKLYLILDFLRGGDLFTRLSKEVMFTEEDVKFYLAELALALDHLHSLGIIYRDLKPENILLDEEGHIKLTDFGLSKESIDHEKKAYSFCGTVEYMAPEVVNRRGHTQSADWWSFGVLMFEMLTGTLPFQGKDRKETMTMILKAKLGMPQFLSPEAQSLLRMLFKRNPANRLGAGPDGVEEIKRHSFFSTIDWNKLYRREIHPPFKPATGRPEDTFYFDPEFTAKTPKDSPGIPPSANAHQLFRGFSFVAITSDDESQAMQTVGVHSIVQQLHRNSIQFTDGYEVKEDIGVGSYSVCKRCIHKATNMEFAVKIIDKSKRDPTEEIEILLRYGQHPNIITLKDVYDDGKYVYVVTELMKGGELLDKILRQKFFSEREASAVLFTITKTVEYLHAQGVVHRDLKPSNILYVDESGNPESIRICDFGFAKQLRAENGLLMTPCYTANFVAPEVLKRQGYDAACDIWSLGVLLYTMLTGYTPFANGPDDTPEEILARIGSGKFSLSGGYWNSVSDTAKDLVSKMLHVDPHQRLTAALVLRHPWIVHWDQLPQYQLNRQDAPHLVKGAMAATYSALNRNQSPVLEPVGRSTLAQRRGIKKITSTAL

Compound	ΔTm [°C]
OC[C@H]1O[C@@H](n2cnc3cc(Cl)c(Cl)cc32)[C@H](O)[C@@H]1O	0
O=c1c(-c2ccc(O)cc2)coc2cc(O)cc(O)c12	1.5

Molecular target: Calcium/calmodulin-dependent protein kinase type II subunit delta (Homo sapiens) (UniProt Q13557)

Compound	ΔTm [°C]
OC[C@H]1O[C@@H](n2cnc3cc(Cl)c(Cl)cc32)[C@H](O)[C@@H]1O	-0.2
O=c1c(-c2ccc(O)cc2)coc2cc(O)cc(O)c12	1.9

Molecular target: T1, Serine/threonine-protein kinase VRK1 (Homo sapiens) (UniProt Q99986)
T1 sequence (whole entry): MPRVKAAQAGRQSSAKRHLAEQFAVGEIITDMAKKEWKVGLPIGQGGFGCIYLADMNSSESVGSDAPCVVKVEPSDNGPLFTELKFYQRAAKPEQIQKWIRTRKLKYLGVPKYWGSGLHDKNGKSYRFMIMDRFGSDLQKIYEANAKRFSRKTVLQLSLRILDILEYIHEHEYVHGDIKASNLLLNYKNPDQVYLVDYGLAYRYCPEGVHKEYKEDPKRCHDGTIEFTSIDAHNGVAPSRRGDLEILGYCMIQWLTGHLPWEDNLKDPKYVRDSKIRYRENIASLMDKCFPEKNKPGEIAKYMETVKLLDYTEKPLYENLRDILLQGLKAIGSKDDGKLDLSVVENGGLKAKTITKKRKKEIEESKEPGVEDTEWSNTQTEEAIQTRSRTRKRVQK

Compound	ΔTm [°C]
OC[C@H]1O[C@@H](n2cnc3cc(Cl)c(Cl)cc32)[C@H](O)[C@@H]1O	-0.1
O=c1c(-c2ccc(O)cc2)coc2cc(O)cc(O)c12	0.6

Molecular target: Mitogen-activated protein kinase 11 (Homo sapiens, UniProt Q15759)

Compound	ΔTm [°C]
OC[C@H]1O[C@@H](n2cnc3cc(Cl)c(Cl)cc32)[C@H](O)[C@@H]1O	0
O=c1c(-c2ccc(O)cc2)coc2cc(O)cc(O)c12	0

Molecular target: T2, Myotonin-protein kinase (Homo sapiens) (UniProt Q09013)
T2 sequence (whole entry): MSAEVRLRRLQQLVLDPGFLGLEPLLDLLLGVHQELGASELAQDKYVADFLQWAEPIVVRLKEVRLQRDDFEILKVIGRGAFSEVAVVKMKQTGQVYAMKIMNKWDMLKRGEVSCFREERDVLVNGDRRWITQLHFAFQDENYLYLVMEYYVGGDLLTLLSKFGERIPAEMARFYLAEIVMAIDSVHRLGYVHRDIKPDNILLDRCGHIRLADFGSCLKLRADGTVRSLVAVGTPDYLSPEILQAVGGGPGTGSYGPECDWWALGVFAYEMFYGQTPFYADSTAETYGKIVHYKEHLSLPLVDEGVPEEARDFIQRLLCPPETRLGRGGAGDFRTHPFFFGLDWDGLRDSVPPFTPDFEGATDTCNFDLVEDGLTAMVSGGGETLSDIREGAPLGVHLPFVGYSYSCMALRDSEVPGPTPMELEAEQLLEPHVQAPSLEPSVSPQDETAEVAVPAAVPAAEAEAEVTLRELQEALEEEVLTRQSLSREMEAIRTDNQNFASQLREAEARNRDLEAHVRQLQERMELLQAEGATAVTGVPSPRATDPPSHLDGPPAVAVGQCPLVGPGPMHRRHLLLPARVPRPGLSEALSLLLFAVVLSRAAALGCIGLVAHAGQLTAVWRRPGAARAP

Compound	ΔTm [°C]
OC[C@H]1O[C@@H](n2cnc3cc(Cl)c(Cl)cc32)[C@H](O)[C@@H]1O	0.1
O=c1c(-c2ccc(O)cc2)coc2cc(O)cc(O)c12	2.4

Molecular target: Serine/threonine-protein kinase pim-2 (Homo sapiens, UniProt Q9P1W9)

Compound	ΔTm [°C]
OC[C@H]1O[C@@H](n2cnc3cc(Cl)c(Cl)cc32)[C@H](O)[C@@H]1O	2.6
O=c1c(-c2ccc(O)cc2)coc2cc(O)cc(O)c12	3.1

Molecular target: Serine/threonine-protein kinase pim-1 (Homo sapiens) (UniProt P11309)
Sequence (P11309 whole entry, looked up): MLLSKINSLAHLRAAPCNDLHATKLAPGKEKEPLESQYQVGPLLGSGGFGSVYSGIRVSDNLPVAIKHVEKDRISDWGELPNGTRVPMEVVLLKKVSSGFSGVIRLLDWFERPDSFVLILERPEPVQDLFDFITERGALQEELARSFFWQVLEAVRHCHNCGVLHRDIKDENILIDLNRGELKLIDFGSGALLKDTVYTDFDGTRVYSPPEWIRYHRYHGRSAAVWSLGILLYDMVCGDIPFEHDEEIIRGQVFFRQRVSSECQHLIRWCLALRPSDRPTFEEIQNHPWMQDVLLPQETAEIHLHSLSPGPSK

Compound	ΔTm [°C]
OC[C@H]1O[C@@H](n2cnc3cc(Cl)c(Cl)cc32)[C@H](O)[C@@H]1O	3.2
O=c1c(-c2ccc(O)cc2)coc2cc(O)cc(O)c12	3.3

Molecular target: Calcium/calmodulin-dependent protein kinase type II subunit gamma (Homo sapiens) (UniProt Q13555)
Sequence (Q13555 whole entry): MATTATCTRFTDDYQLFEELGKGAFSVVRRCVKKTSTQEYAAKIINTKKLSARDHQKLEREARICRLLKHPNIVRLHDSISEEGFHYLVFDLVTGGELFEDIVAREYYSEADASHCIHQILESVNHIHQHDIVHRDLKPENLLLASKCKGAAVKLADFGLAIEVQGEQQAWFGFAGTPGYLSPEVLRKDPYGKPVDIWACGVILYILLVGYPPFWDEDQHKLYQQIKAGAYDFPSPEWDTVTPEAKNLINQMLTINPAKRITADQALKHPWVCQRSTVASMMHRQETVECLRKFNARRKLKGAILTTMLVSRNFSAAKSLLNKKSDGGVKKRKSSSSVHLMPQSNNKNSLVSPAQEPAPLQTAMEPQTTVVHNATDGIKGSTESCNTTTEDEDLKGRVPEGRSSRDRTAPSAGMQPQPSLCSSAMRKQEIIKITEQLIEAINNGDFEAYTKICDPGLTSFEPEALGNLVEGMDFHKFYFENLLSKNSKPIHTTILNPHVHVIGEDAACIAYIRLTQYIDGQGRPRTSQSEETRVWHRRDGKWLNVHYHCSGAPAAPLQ

Compound	ΔTm [°C]
OC[C@H]1O[C@@H](n2cnc3cc(Cl)c(Cl)cc32)[C@H](O)[C@@H]1O	0.1
O=c1c(-c2ccc(O)cc2)coc2cc(O)cc(O)c12	0

Molecular target: Serine/threonine-protein kinase PAK 5 (Homo sapiens) (UniProt Q9P286)
Sequence (Q9P286 whole entry, looked up): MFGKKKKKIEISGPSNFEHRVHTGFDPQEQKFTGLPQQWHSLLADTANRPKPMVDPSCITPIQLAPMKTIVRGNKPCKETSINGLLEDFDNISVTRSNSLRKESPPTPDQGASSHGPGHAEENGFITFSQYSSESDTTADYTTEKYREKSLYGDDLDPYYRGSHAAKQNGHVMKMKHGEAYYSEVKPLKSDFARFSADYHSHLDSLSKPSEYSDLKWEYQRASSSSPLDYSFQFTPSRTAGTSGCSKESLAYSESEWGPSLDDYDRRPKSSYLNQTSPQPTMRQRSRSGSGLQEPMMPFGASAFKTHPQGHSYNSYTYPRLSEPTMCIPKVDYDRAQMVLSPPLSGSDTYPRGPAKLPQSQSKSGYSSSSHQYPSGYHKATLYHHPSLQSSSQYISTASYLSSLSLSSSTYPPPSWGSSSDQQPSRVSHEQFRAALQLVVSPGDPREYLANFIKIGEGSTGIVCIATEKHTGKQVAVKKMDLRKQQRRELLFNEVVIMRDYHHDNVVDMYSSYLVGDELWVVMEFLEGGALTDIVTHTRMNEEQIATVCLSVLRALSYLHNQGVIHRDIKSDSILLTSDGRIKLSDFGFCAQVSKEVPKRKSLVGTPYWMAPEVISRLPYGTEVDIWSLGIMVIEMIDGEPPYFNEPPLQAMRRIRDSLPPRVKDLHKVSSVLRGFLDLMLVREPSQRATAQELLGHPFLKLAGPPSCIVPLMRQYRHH

Compound	ΔTm [°C]
OC[C@H]1O[C@@H](n2cnc3cc(Cl)c(Cl)cc32)[C@H](O)[C@@H]1O	0.2
O=c1c(-c2ccc(O)cc2)coc2cc(O)cc(O)c12	0.2

Molecular target: T3, Lymphokine-activated killer T-cell-originated protein kinase (Homo sapiens) (UniProt Q96KB5)
T3 sequence (whole entry): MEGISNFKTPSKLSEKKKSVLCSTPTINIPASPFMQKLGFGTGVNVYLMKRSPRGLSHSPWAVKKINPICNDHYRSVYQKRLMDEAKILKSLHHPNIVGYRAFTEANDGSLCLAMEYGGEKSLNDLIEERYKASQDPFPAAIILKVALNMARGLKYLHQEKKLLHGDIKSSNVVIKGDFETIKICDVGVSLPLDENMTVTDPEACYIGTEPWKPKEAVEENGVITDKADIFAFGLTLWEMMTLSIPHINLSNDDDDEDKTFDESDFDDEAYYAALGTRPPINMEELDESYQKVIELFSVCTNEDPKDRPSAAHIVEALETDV

Compound	ΔTm [°C]
OC[C@H]1O[C@@H](n2cnc3cc(Cl)c(Cl)cc32)[C@H](O)[C@@H]1O	0.6
O=c1c(-c2ccc(O)cc2)coc2cc(O)cc(O)c12	0.7

Molecular target: Serine/threonine-protein kinase 25 (Homo sapiens) (UniProt O00506)

Compound	ΔTm [°C]
OC[C@H]1O[C@@H](n2cnc3cc(Cl)c(Cl)cc32)[C@H](O)[C@@H]1O	0

Molecular target: Dual specificity mitogen-activated protein kinase kinase 2 (Homo sapiens, UniProt P36507)

Compound	ΔTm [°C]
OC[C@H]1O[C@@H](n2cnc3cc(Cl)c(Cl)cc32)[C@H](O)[C@@H]1O	-0.3
O=c1c(-c2ccc(O)cc2)coc2cc(O)cc(O)c12	0.3

Molecular target: Serine/threonine-protein kinase OSR1 (Homo sapiens) (UniProt O95747)
Sequence (O95747 2-527 limits assumed): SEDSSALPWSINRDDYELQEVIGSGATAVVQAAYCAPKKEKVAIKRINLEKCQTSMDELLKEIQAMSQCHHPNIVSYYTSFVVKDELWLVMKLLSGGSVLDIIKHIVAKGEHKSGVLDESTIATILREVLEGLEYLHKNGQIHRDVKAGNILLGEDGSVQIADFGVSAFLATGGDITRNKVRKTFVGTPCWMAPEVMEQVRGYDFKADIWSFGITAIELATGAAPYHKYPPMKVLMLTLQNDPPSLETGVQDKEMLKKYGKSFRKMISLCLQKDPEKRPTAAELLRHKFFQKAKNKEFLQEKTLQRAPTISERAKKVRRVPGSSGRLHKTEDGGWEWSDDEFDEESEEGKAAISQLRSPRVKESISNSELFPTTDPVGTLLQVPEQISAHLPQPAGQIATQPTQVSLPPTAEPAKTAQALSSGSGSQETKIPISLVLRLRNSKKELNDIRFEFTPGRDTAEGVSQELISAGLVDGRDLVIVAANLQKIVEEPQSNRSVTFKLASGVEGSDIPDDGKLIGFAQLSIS

Compound	ΔTm [°C]
OC[C@H]1O[C@@H](n2cnc3cc(Cl)c(Cl)cc32)[C@H](O)[C@@H]1O	0.4
O=c1c(-c2ccc(O)cc2)coc2cc(O)cc(O)c12	-0.2

Molecular target: Death-associated protein kinase 3 (Homo sapiens) (UniProt O43293)
Sequence (O43293 whole entry, looked up): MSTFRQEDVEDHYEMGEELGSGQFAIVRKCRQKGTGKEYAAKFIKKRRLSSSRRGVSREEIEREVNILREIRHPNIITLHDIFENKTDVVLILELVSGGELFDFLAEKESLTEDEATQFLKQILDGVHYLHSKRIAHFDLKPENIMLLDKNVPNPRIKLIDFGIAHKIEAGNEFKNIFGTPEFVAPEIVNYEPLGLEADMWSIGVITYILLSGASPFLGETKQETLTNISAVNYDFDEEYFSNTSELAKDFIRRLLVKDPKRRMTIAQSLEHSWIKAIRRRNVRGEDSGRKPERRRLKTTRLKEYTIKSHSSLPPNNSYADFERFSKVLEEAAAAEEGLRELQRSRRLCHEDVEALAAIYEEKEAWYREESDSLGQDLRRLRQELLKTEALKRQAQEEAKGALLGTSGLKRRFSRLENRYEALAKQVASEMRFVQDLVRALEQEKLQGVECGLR

Compound	ΔTm [°C]
OC[C@H]1O[C@@H](n2cnc3cc(Cl)c(Cl)cc32)[C@H](O)[C@@H]1O	1.6
O=c1c(-c2ccc(O)cc2)coc2cc(O)cc(O)c12	0.5

Molecular target: Serine/threonine-protein kinase 26 (Homo sapiens) (UniProt Q9P289)
Sequence (Q9P289 2-416 limits assumed): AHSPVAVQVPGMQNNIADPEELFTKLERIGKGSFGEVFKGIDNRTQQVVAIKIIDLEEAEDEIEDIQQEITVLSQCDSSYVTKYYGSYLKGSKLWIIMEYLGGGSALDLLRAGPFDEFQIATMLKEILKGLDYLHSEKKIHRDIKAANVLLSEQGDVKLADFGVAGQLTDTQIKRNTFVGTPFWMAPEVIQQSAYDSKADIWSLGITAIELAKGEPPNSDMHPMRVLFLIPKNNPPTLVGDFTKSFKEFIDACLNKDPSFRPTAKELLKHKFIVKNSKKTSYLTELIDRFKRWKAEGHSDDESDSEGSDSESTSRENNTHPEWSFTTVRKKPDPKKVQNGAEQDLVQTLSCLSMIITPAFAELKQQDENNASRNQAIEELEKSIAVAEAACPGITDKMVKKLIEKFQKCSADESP

Compound	ΔTm [°C]
OC[C@H]1O[C@@H](n2cnc3cc(Cl)c(Cl)cc32)[C@H](O)[C@@H]1O	-0.3
O=c1c(-c2ccc(O)cc2)coc2cc(O)cc(O)c12	0.8

Molecular target: Cyclin-dependent kinase 2 (Homo sapiens, UniProt P24941)

Compound	ΔTm [°C]
O=c1c(-c2ccc(O)cc2)coc2cc(O)cc(O)c12	0.7

Molecular target: Serine/threonine-protein kinase 26 (Homo sapiens) (UniProt Q9P289)
Remark: another data set of the same source

Compound	ΔTm [°C]
OC[C@H]1O[C@@H](n2cnc3cc(Cl)c(Cl)cc32)[C@H](O)[C@@H]1O	-0.3
O=c1c(-c2ccc(O)cc2)coc2cc(O)cc(O)c12	1

Molecular target: Dual specificity protein kinase CLK2 (Homo sapiens) (UniProt P49760)
Sequence (P49760 whole entry, looked up): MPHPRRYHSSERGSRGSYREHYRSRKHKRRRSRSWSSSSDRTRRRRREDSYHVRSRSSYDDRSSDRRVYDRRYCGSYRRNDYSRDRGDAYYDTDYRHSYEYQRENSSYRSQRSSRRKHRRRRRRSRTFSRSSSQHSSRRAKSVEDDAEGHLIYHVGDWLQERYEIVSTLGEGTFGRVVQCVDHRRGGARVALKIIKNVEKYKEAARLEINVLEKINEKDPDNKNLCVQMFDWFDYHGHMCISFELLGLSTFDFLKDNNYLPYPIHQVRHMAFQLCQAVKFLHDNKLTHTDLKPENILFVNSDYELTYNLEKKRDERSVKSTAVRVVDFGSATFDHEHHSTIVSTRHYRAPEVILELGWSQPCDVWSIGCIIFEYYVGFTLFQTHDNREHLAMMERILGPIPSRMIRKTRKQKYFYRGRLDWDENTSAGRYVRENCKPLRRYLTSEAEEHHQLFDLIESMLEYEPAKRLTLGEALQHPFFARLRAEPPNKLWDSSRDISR

Compound	ΔTm [°C]
OC[C@H]1O[C@@H](n2cnc3cc(Cl)c(Cl)cc32)[C@H](O)[C@@H]1O	1.6
O=c1c(-c2ccc(O)cc2)coc2cc(O)cc(O)c12	0.5

Molecular target: Serine/threonine-protein kinase pim-3 (Homo sapiens) (UniProt Q86V86)

Compound	ΔTm [°C]
OC[C@H]1O[C@@H](n2cnc3cc(Cl)c(Cl)cc32)[C@H](O)[C@@H]1O	3.1
O=c1c(-c2ccc(O)cc2)coc2cc(O)cc(O)c12	3

Molecular target: Calcium/calmodulin-dependent protein kinase type 1D (Homo sapiens) (UniProt Q8IU85)
Sequence (Q8IU85 whole entry, looked up): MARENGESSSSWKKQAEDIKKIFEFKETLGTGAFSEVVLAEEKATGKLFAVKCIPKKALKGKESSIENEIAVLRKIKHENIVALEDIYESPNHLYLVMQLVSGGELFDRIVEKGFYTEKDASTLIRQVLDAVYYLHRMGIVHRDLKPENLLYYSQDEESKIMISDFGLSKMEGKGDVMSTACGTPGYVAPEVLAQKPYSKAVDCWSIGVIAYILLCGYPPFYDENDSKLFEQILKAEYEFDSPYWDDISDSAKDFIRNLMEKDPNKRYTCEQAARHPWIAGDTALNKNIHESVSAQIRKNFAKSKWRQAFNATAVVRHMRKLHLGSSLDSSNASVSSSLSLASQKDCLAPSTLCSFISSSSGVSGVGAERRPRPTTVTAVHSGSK

Compound	ΔTm [°C]
OC[C@H]1O[C@@H](n2cnc3cc(Cl)c(Cl)cc32)[C@H](O)[C@@H]1O	0
O=c1c(-c2ccc(O)cc2)coc2cc(O)cc(O)c12	0.7

Molecular target: T4, Serine/threonine-protein kinase 17A (Homo sapiens) (UniProt Q9UEE5)
T4 sequence (whole entry): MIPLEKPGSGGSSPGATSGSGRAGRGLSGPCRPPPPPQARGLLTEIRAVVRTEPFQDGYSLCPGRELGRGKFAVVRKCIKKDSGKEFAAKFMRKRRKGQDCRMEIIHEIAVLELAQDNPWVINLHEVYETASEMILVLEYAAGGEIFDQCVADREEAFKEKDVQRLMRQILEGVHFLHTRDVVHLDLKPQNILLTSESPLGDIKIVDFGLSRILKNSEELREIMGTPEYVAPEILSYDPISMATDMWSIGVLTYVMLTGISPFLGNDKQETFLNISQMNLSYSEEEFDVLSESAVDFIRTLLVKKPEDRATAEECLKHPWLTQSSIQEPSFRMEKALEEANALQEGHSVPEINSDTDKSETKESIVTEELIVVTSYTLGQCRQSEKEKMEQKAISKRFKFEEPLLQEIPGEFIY

Compound	ΔTm [°C]
OC[C@H]1O[C@@H](n2cnc3cc(Cl)c(Cl)cc32)[C@H](O)[C@@H]1O	2.1
O=c1c(-c2ccc(O)cc2)coc2cc(O)cc(O)c12	0.6

Reference: ChEMBL document CHEMBL1145498, “A systematic interaction map of validated kinase inhibitors with Ser/Thr kinases” (Proc Natl Acad Sci U S A, 2007)
